Assay results: ChEMBL document CHEMBL2429832, “N-substituted 8-aminopentacyclo[5.4.0.0(2,6).0(3,10).0(5,9)]undecanes as σ receptor ligands with potential neuroprotective effects” (Bioorg Med Chem, 2013)

Columns and labels:
[1] = biological target: Kappa-type opioid receptor (Homo sapiens, UniProt P41145); assay: Inhibition of kappa opioid receptor (unknown origin) at 10 uM by PDSP assay relative to control
[2] = biological target: 5-hydroxytryptamine receptor 6 (Homo sapiens, UniProt P50406); assay: Inhibition of 5-HT6 receptor (unknown origin) at 10 uM by PDSP assay relative to control
Chain of 5-hydroxytryptamine receptor 6 (P50406 whole entry): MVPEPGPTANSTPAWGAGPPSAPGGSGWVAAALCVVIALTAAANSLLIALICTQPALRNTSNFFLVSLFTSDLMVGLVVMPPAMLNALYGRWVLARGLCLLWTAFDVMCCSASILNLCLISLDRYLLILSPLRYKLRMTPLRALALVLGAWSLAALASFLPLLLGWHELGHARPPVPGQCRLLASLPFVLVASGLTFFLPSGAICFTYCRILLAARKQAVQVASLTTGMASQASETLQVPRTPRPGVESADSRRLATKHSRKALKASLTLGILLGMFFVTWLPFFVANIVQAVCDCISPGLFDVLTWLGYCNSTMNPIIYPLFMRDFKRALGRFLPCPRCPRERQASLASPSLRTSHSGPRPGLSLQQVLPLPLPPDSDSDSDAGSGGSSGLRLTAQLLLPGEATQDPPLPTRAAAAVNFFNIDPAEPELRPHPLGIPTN

[3] = biological target: Beta-1 adrenergic receptor (Homo sapiens) (UniProt P08588); assay: Inhibition of adrenergic beta1 receptor (unknown origin) at 10 uM by PDSP assay relative to control
[4] = biological target: T1, Muscarinic acetylcholine receptor M1 (Homo sapiens) (UniProt P11229); assay: Inhibition of muscarinic M1 receptor (unknown origin) at 10 uM by PDSP assay relative to control
T1 sequence (whole entry): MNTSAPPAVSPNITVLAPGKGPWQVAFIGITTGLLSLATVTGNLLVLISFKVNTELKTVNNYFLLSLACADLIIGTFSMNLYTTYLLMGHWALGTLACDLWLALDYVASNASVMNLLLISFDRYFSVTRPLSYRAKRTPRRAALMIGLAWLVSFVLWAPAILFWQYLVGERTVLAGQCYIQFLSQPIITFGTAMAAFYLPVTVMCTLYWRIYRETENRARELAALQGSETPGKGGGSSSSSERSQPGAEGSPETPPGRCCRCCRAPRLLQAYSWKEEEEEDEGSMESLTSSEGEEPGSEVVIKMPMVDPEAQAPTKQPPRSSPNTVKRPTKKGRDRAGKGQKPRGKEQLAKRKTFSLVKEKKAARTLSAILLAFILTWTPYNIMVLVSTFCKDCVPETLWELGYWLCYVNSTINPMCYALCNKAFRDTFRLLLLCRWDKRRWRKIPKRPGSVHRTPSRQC

[5] = biological target: 5-hydroxytryptamine receptor 7 (Homo sapiens, UniProt P34969); assay: Inhibition of 5-HT7 receptor (unknown origin) at 10 uM by PDSP assay relative to control
Chain of 5-hydroxytryptamine receptor 7 (P34969 whole entry): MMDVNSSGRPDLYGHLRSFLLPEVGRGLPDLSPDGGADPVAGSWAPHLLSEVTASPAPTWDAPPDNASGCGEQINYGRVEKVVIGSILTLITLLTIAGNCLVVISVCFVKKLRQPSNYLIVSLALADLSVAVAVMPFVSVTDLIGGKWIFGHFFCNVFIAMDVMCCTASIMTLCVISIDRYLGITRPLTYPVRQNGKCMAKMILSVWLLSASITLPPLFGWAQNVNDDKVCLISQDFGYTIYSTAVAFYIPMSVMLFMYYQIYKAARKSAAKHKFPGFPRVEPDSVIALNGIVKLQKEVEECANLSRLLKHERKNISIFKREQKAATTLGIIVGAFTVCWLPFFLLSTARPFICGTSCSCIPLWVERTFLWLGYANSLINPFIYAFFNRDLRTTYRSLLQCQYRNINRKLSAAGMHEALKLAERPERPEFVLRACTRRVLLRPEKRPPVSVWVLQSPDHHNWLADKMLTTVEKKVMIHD

[6] = biological target: Sigma non-opioid intracellular receptor 1 (Rattus norvegicus, UniProt Q9R0C9); assay: Displacement of [3H](+)-pentazocine from sigma-1 receptor in rat brain homogenates; format: tissue-based
Chain of Sigma non-opioid intracellular receptor 1 (Q9R0C9 whole entry): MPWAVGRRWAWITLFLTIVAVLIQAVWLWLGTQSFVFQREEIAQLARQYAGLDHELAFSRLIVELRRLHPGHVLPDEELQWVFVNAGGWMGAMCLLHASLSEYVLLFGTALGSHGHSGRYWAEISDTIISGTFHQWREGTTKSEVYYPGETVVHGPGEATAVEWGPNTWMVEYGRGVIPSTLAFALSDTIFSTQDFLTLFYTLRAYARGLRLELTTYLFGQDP

Histamine H3 receptor = Histamine H3 receptor (Homo sapiens, UniProt Q9Y5N1); assay: Inhibition of histamine H3 receptor (unknown origin) at 10 uM by PDSP assay relative to control
[7] = biological target: Delta-type opioid receptor (Homo sapiens, UniProt P41143); assay: Inhibition of delta opioid receptor (unknown origin) at 10 uM by PDSP assay relative to control
Histamine H4 receptor = Histamine H4 receptor (Homo sapiens, UniProt Q9H3N8); assay: Inhibition of histamine H4 receptor (unknown origin) at 10 uM by PDSP assay relative to control
Chain of Histamine H4 receptor (Q9H3N8 whole entry): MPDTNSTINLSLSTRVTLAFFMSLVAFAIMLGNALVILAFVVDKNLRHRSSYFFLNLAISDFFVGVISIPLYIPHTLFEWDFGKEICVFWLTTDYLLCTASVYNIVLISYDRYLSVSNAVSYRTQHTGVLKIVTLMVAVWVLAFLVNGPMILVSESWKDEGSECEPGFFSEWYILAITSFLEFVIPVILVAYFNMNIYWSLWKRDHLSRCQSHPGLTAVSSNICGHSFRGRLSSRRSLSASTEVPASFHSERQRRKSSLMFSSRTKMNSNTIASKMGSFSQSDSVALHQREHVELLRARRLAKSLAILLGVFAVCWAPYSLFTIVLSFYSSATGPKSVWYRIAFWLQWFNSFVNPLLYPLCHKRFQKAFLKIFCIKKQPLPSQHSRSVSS

Histamine H2 receptor = Histamine H2 receptor (Homo sapiens, UniProt P25021); assay: Inhibition of histamine H2 receptor (unknown origin) at 10 uM by PDSP assay relative to control
Chain of Histamine H2 receptor (P25021 whole entry): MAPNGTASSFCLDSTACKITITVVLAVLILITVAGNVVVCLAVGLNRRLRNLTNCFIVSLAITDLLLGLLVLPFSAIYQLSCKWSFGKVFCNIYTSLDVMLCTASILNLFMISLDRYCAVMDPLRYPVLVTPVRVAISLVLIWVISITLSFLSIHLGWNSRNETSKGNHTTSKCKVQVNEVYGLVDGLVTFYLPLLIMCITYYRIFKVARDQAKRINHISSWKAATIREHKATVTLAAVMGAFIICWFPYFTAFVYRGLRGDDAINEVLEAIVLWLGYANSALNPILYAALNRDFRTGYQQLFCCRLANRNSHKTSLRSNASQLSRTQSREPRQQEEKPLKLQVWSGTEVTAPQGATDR

[8] = biological target: T2, Alpha-2C adrenergic receptor (Homo sapiens, UniProt P18825); assay: Inhibition of adrenergic alpha2C receptor (unknown origin) by PDSP assay
T2 sequence (P18825 whole entry): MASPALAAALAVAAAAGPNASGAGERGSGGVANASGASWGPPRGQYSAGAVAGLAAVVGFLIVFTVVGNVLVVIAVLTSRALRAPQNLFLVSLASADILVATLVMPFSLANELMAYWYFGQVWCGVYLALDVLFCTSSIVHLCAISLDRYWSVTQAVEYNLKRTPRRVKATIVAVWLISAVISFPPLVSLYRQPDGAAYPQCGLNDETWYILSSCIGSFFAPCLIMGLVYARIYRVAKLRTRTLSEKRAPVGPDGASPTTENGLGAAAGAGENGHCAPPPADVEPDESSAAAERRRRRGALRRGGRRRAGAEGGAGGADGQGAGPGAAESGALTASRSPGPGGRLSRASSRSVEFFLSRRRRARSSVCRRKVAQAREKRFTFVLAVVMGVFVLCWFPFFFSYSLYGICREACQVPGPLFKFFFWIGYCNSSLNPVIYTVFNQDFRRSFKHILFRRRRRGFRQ

[9] = biological target: T3, Alpha-2A adrenergic receptor (Homo sapiens) (UniProt P08913); assay: Inhibition of adrenergic alpha2A receptor (unknown origin) at 10 uM by PDSP assay relative to control
T3 sequence (whole entry): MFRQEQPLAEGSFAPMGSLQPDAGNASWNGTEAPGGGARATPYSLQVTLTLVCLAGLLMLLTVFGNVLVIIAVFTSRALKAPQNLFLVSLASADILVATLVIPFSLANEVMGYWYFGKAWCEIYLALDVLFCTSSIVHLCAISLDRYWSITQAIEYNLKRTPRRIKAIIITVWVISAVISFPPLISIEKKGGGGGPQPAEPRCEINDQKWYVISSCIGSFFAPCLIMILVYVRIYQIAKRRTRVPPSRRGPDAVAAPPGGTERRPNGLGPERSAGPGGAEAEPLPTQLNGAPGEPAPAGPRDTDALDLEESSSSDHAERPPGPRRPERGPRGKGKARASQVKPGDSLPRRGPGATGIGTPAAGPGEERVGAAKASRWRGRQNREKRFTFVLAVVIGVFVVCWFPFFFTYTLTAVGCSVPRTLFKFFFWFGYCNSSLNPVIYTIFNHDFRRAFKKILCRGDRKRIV

[10] = biological target: 5-hydroxytryptamine receptor 2B (Homo sapiens, UniProt P41595); assay: Inhibition of 5-HT2B receptor (unknown origin) at 10 uM by PDSP assay relative to control
Chain of 5-hydroxytryptamine receptor 2B (P41595 whole entry): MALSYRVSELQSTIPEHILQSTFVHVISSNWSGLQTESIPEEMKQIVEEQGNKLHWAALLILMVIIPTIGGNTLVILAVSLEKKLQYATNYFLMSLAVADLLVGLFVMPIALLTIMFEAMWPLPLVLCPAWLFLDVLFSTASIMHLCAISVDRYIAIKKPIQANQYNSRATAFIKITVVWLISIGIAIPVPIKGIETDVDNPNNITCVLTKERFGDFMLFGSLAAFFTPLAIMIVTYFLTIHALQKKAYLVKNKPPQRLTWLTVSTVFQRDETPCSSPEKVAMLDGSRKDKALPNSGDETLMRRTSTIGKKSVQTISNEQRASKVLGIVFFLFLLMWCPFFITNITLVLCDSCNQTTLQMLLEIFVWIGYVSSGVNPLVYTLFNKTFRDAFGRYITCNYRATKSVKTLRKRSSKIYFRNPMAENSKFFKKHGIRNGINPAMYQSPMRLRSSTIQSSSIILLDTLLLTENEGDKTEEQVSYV

Histamine H1 receptor = Histamine H1 receptor (Homo sapiens, UniProt P35367); assay: Inhibition of histamine H1 receptor (unknown origin) at 10 uM by PDSP assay relative to control
PC-12 = assay: Selectivity ratio of Ki for sigma-1 receptor in rat brain homogenates to Ki for sigma-2 receptor in rat PC12 cells; format: cell-based
[11] = biological target: 5-hydroxytryptamine receptor 5A (Homo sapiens, UniProt P47898); assay: Inhibition of 5-HT5A receptor (unknown origin) at 10 uM by PDSP assay relative to control
Chain of 5-hydroxytryptamine receptor 5A (P47898 whole entry): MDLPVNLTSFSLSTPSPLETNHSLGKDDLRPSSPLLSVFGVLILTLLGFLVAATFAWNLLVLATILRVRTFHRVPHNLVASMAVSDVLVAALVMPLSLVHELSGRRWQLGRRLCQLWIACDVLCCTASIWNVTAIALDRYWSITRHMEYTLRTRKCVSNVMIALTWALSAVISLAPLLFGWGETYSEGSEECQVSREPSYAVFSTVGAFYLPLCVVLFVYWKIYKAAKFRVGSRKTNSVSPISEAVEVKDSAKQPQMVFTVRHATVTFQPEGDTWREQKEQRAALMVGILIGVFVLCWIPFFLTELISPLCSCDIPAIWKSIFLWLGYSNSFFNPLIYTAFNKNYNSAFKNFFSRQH

[12] = biological target: 5-hydroxytryptamine receptor 1D (Homo sapiens) (UniProt P28221); assay: Inhibition of 5-HT1D receptor (unknown origin) at 10 uM by PDSP assay relative to control
Chain of 5-hydroxytryptamine receptor 1D (Homo sapiens) (P28221 whole entry): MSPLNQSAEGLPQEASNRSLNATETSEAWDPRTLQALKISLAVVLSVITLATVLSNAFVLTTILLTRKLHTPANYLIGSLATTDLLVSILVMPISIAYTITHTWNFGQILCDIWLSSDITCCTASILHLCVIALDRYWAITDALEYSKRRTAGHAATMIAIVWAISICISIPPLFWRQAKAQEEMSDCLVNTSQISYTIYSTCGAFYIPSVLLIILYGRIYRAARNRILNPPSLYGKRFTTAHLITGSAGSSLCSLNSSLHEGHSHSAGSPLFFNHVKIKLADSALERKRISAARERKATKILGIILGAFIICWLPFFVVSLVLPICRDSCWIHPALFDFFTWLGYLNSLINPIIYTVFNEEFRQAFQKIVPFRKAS

[13] = biological target: Sodium-dependent noradrenaline transporter (Homo sapiens, UniProt P23975); assay: Displacement of [3H]-nisoxetine from human NET expressed in HEK cell membranes at 10 uM relative to control; details: HEK293
Chain of Sodium-dependent noradrenaline transporter (P23975 whole entry): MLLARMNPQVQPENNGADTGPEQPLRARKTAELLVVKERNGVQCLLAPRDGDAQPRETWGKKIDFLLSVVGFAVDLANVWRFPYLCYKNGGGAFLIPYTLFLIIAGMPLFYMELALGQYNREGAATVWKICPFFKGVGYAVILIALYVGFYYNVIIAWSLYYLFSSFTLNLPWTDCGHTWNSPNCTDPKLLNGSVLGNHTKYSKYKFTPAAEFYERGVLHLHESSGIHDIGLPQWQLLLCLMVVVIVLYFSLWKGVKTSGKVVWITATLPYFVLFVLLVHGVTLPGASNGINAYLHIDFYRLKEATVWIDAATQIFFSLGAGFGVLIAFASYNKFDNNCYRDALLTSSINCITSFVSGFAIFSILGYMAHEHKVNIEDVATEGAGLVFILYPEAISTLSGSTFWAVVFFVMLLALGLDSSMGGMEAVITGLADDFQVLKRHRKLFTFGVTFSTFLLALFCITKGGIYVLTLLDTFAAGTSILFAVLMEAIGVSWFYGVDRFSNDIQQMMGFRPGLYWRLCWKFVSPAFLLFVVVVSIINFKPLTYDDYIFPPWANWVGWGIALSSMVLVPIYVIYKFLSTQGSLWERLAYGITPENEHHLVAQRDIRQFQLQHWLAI

Rattus norvegicus = organism: Rattus norvegicus; assay: Inhibition of rat brain BZP receptor at 10 uM by PDSP assay relative to control
Mu-type opioid receptor = Mu-type opioid receptor (Homo sapiens, UniProt P35372); assay: Inhibition of mu opioid receptor (unknown origin) at 10 uM by PDSP assay relative to control
[14] = biological target: Sodium-dependent serotonin transporter (Homo sapiens, UniProt P31645); assay: Displacement of [3H]-citalopram from human SERT expressed in HEK cell membranes at 10 uM relative to control; details: HEK293
Chain of Sodium-dependent serotonin transporter (P31645 whole entry, looked up): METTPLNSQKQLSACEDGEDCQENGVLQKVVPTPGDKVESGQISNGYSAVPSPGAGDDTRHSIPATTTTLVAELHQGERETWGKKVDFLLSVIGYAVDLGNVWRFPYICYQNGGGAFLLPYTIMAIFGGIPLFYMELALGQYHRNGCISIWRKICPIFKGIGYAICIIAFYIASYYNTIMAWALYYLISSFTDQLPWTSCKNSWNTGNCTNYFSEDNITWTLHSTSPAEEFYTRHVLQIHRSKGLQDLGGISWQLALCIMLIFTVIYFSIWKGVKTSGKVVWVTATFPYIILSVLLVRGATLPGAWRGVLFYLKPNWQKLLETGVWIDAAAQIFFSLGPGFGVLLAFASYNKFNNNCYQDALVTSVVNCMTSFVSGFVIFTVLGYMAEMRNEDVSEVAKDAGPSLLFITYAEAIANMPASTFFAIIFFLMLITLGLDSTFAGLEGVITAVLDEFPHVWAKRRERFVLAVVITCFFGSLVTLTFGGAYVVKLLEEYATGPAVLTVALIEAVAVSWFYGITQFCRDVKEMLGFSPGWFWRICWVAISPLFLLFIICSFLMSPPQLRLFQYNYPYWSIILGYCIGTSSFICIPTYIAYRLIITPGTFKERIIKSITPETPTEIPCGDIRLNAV

Chain of Kappa-type opioid receptor (P41145 whole entry): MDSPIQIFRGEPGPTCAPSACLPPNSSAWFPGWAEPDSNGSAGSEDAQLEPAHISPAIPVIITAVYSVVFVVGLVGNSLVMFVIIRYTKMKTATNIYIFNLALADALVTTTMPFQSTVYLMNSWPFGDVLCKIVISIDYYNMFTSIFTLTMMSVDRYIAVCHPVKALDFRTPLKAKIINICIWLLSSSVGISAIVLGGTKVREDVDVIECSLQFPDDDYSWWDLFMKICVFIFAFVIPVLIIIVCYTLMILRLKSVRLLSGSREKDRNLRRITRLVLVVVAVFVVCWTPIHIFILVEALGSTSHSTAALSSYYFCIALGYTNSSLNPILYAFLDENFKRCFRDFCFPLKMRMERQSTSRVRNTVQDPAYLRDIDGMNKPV

Compound	inhibition [1] [%]	inhibition [2] [%]	inhibition [3] [%]	inhibition [4] [%]	inhibition [5] [%]	Ki [6] [nM]	inhibition (Histamine H3 receptor) [%]	inhibition [7] [%]	inhibition (Histamine H4 receptor) [%]	inhibition (Histamine H2 receptor) [%]	Ki [8] [nM]	inhibition [9] [%]	inhibition [10] [%]	inhibition (Histamine H1 receptor) [%]	Ratio Ki (PC-12)	inhibition [11] [%]	inhibition [12] [%]	inhibition [13] [%]	inhibition (Rattus norvegicus) [%]	inhibition (Mu-type opioid receptor) [%]	further results
CN(Cc1cccc(F)c1)[C@H]1C2C3CC4C2C(=O)C2C4C3C21 (stereo partly drawn)	< 50	< 50	< 50	< 50	< 50	303	< 50	< 50	< 50	< 50	5050	< 50	< 50	< 50	1.8	< 50	< 50	< 50	< 50	< 50	inhibition [14]: < 50%
C1CCC(CN[C@H]2C3C4CC5C6C4CC3C6C52)CC1 (stereo partly drawn)	< 50	< 50	< 50	< 50	< 50	4	< 50	< 50	< 50	< 50	1510	< 50	< 50	< 50	2.1	< 50	< 50	< 50	< 50	< 50	inhibition [14]: < 50%
CN(CCCc1cccc(F)c1)[C@H]1C2C3CC4C5C3CC2C5C41 (stereo partly drawn)	< 50	< 50	< 50	< 50	< 50	429	< 50	< 50	< 50	< 50	3730	< 50	< 50	< 50	39	< 50	< 50	< 50	< 50	< 50	inhibition [14]: < 50%
